Patent US20040186166A1, “Cannabinoid analogs as peroxisome proliferator activated nuclear receptor gamma activators” (priority 2002, published 2004)

Legend:
[1] = tested on: human IL-8 promoter; assay: IL-8 promoter luciferase assay, HeLa cells with wild type PPARγ; type: cell-based; conditions: GW347845 control
Protocol: (§1) For PPARγ activation assay, HEK293 cells were plated in 12-well cell culture plates and maintained in Dulbecco's modified Eagle's medium (DMEM) supplemented with 10% fetal bovine serum (FBS) at 37° C. under 5% CO2. Cells were changed to phenol red-free DMEM supplemented with 10% charcoal-stripped fetal bovine serum 3 hours before transfection by a standard calcium-phosphate precipitation method. Twelve hours after transfection, the cells were washed with phosphate-buffered saline (PBS) and fed again with fresh medium containing the indicated concentrations of compounds. After 36 hours, cells were harvested for β-galactosidase and luciferase activities as described previously (Li et al., Proc Natl Acad Sci USA 94:8479-84, 1997). The average normalized luciferase activity was determined via triplicate experiments. For IL-8 promoter assay, HeLa cells were maintained and transfected in the same way as described above. After transfection, cells were recovered for 4 hours before treatment with AJA, GW347845, or solvent. After 3-4 hours, cells were treated with or without 25 nM of phorbol myristate acetate (PMA) for 24 hours.
The IL-8 luciferase reporter controlled by the human IL-8 promoter (-97/-69) was cotransfected with mPPARγ or mPPARγ ΔAF2 mutant into HeLa cells. After transfection, cells were treated with AJA, GW347845 or solvent after PMA treatment for 24 hours. This was performed by determining the effect of AJA on IL-8 promoter activity and the role of PPARγ in this process. IL-8 is a biomarker for inflammation, and reduction of IL-8 levels correlates with a decrease in inflammation. The involvement of PPARγ in regulating IL-8 promoter activity was determined by comparing the IL-8 promoter activity in the presence of wild type PPARγ or its ΔAF2 mutant. In the experiment illustrated in FIG. 6A, PMA stimulated IL-8 promoter activity 3 fold, which was set as 100% promoter activity.

[2] = tested on: 3T3 L1 fibroblasts; assay: Adipocyte differentiation assay, Oil Red O staining; type: cell-based; conditions: 1 μM GW347845, 7 days, 10 μg/ml insulin
Protocol: The adipocyte differentiation assay was performed as described by Mukherjee et. al. (Mol Endocrinol 14: 1425-33, 2000). The 3T3 L1 cells (American Type Culture Collection) were cultured in DMEM media supplemented with 10% calf serum. Two days after reaching confluence, cells were treated with AJA, GW347845, or vehicle (0.1% DMSO) in the presence of 10 μg/ml insulin every other day. After 10 days of treatment with AJA or 7 days with GW347845 at confluence, cells were fixed and stained with Oil Red O (Sigma). For RT-PCR, total cellular RNAs were isolated by TRIzol (Gibco). Reverse transcriptase polymerase chain reaction (RT-PCR) was performed using the superscript first-strand synthesis kit (Invitrogen). After first-strand cDNA was synthesized by use of oligo (dT), cDNA was amplified by PCR. […]
3T3 L1 fibroblasts cells were cultured in DMEM supplemented with 10% calf serum. […] The cells were treated for 10 days with AJA, or 7 days with GW347845, and lipid accumulation in cells was assessed by Oil Red O staining.

[3] = tested on: PPARγ2 and aP2 gene expression in 3T3 L1 cells; assay: RT-PCR of adipocyte-specific genes; type: cell-based; conditions: versus vehicle control
Protocol: The adipocyte differentiation assay was performed as described by Mukherjee et. al. (Mol Endocrinol 14: 1425-33, 2000). The 3T3 L1 cells (American Type Culture Collection) were cultured in DMEM media supplemented with 10% calf serum. Two days after reaching confluence, cells were treated with AJA, GW347845, or vehicle (0.1% DMSO) in the presence of 10 μg/ml insulin every other day. After 10 days of treatment with AJA or 7 days with GW347845 at confluence, cells were fixed and stained with Oil Red O (Sigma). For RT-PCR, total cellular RNAs were isolated by TRIzol (Gibco). Reverse transcriptase polymerase chain reaction (RT-PCR) was performed using the superscript first-strand synthesis kit (Invitrogen). After first-strand cDNA was synthesized by use of oligo (dT), cDNA was amplified by PCR. The forward primers and reverse primers used in the amplifications were 5′-GCTGTTATGGGTGAAACTCTGGGAG-3′(SEQ ID NO: 1), and 5′-CTTCATGAGGCCTGTTGTAGAGC-3′ (SEQ ID NO:2), for PPARγ2, 5′-GAGCAAATGGAGTTCCCAGATG-3′ (SEQ ID NO: 3), and 5′-GCAAACAATGGGAATAGTTCACAGTAG-3′ (SEQ ID NO: 4), for aP2, and 5′-GACCACAGTCCATGCCATCAC-3′(SEQ ID NO: 5), and 5′-CATACCAGGAAATGAGCTGAC-3′ (SEQ ID NO: 6), for GAPDH. PCR amplifications were performed in 50 μL volume with Taq DNA polymerase for 30 cycles.
To confirm that AJA and GW347845 induce 3T3 L1 cell differentiation into adipocytes, the expression levels of the adipocyte-specific genes PPARγ2 and aP2 were measured by RT-PCR. Total RNA was isolated after AJA or GW347845 treatment, and compared with vehicle control. Reverse transcription was conducted and the relative amounts of PPARγ2 and aP2 transcripts were measured by PCR reactions using primer sets specific to each gene. PCR products were analyzed on 1% agarose gel and stained with Ethidium Bromide. […] As a control for the induction specificity and the PCR amplification reaction, the expression levels of GADPH were measured in all samples, and found not affected by any treatment.

[4] = tested on: human IL-8 promoter; assay: IL-8 promoter luciferase assay, HeLa cells with PPARγ ΔAF2 mutant; type: cell-based; conditions: cells transfected with PPARγ ΔAF2 mutant
Protocol: as §1, with “After 3-4 hours, cells were treated with or without 25 nM of phorbol myristate acetate (PMA) for 24 hours.” left out
The IL-8 luciferase reporter controlled by the human IL-8 promoter (-97/-69) was cotransfected with mPPARγ or mPPARγ ΔAF2 mutant into HeLa cells. […] The involvement of PPARγ in regulating IL-8 promoter activity was determined by comparing the IL-8 promoter activity in the presence of wild type PPARγ or its ΔAF2 mutant. […]

[5] = molecular target: T1, PPARγ (Homo sapiens, UniProt P37231); assay: Activation of PPARγ by natural cannabinoids (no method given)
T1 sequence (P37231 1-505): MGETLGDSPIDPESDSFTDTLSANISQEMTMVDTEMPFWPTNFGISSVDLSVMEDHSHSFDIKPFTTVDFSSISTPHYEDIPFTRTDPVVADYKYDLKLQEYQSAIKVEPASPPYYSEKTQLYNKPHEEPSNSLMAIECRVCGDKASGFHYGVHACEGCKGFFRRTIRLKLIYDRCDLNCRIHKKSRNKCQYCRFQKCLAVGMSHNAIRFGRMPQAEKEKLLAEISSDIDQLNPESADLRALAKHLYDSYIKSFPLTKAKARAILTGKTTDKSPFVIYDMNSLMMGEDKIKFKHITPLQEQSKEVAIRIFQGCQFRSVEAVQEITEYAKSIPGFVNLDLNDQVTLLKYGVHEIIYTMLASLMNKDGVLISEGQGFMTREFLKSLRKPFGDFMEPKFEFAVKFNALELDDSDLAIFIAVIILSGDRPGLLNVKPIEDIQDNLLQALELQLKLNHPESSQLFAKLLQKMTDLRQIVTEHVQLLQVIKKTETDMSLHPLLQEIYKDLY

COC(=O)c1ccccc1N[C@@H](Cc1ccc(OCCc2nc(-c3ccccc3)oc2C)cc1)C(=O)O [GW347845, reference compound]
reduction of IL-8 promoter activity [1]: dramatically reduced IL-8 promoter activity | lipid accumulation, Oil Red O staining [2]: dramatic increase in lipid droplet staining | PPARγ2 gene expression [3]: enhanced PPARγ2 and aP2 gene expression significantly | aP2 gene expression [3]: enhanced PPARγ2 and aP2 gene expression significantly | effect on IL-8 promoter activity [4]: not with the ΔAF2 mutant

CCCCCc1cc(O)c2c(c1)OC(C)(C)[C@@H]1CCC(C)=C[C@@H]21 [THC, Tetrahydrocannabinol]
activation of PPARγ [5]: also activate PPARγ
